According to PMC4864329, “In vitro and in vivo efficacy, toxicity, bio-distribution and resistance selection of a novel antibacterial drug candidate” (Scientific Reports, 2016):
Positions of bridges follow the written chain, without caps; N, C: chain ends. Non-standard residues stand in square brackets, D forms with d. Residues, ends and D or L forms follow the SMILES beside them. Chains are numbered I, II in the order given. PEG4 = NCCOCCOCCOCCOCCC(=O)O

Assays:
P. aeruginosa PAO1 [1] = experiment: Sepsis model in neutropenic BALB/c mice, survival; type: in vivo, Pseudomonas aeruginosa; settings: PAO1 1.5 × 10^3 CFU/mouse i.p., 5 mg/Kg i.v. twice, 24 and 72 h post-infection, 12 days, 10 mice/group
Protocol: Neutropenic mice were injected i.p. with a lethal amount of P. aeruginosa PAO1 (1.5 × 10^3 CFU/mouse). Then mice were treated twice i.v. with SET-M33L or SET-M33L-PEG (5 mg/Kg), 24 and 72 hours post-infection. Then animals were monitored for survival for 12 days. Survivals of 60% and 80% were obtained with SET-M33L or SET-M33L-PEG, respectively (Fig. 1). Note that this is a model of acute and rapidly progressive infection, since animals start to show signs of disease within 24 hours and controls died after 40–65 hours. Treatment with the peptides begun 24 h after onset of the infection. The relatively long interval between i.p. inoculation of bacteria and the start of i.v. treatment in animals with suppressed immune systems is a valid indication of the potency of the peptides in vivo.
Animal procedures were approved by the Ethics Committees of the Azienda Ospedaliera Universitaria Senese on November 18, 2010, and of the Italian Ministry of Health on September 21, 2012. Eight-week-old (20 g) BALB/c female mice (Charles River) were used in all experiments. […] All p values were calculated using GraphPad Prism 5.0 software.
In the Pseudomonas model of sepsis[35] animals were rendered neutropenic by i.p. administration of cyclophosphamide (Sigma-Aldrich C7397) at 150 mg/kg (300 μl of a 10 mg/ml solution) 4 days and 1 day before infection. […] Surviving mice were monitored for 12 days. […]

P. aeruginosa PAO1 [2] = experiment: Lung infection model in neutropenic BALB/c mice, i.v. treatment, survival; type: in vivo, Pseudomonas aeruginosa; settings: PAO1 1.5 × 10^3 CFU/mouse i.t., 5 mg/Kg i.v. twice, 1 and 16 h post-infection, 10 days, 10 mice/group
Protocol: Neutropenic mice were injected intra-tracheally (i.t.) with a lethal amount of P. aeruginosa PAO1 (1.5 × 10^3 CFU/mouse). They were then treated twice i.v. 1 and 16 hours post-infection with SET-M33L or SET-M33L-PEG 5 mg/Kg and monitored for survival for 10 days. We obtained 40% and 60% survival with SET-M33L and SET-M33L-PEG, respectively (Fig. 2A).
Animal procedures were approved by the Ethics Committees of the Azienda Ospedaliera Universitaria Senese on November 18, 2010, and of the Italian Ministry of Health on September 21, 2012. Eight-week-old (20 g) BALB/c female mice (Charles River) were used in all experiments. The animals were maintained and handled in accordance with the Guidelines for Accommodation and Care of Animals (European Convention for the Protection of Vertebrate Animals Used for Experimental and Other Scientific Purposes) and internal guidelines. For each experiment the animals were housed in groups of five mice per cage upon arrival and maintained with food and water ad libitum for 5 days before the beginning of treatment. All p values were calculated using GraphPad Prism 5.0 software.
We set up two lung infection models, one for i.v. and the other for intra-tracheal (i.t.) treatment. In the i.v. model, animals were made neutropenic as described in the sepsis model. […] Surviving mice were monitored for 10 days. […]

BALB/c mice = experiment: Acute toxicity in mice, single i.v. dose; type: in vivo, mouse
Protocol: As preliminary toxicity evaluation we first compared the acute toxicity of SET-M33L and SET-M33L-PEG with that of colistin. Animals (10 BALB/c mice/group) were injected i.v. with different amounts of SET-M33L, SET-M33L-PEG or colistin, in single dose, in the range 5–40 mg/kg (Fig. 4), and were monitored for 4 days after inoculation of the peptide. […] At 40 mg/Kg SET-M33L and SET-M33L-PEG produced similar toxicity profiles with strong signs of toxicity and 90–100% mortality after 96 hours. Colistin produced strong signs of toxicity already at 10 mg/Kg: 50% mortality immediately after inoculation and 70% mortality after 24 hours. Colistin induced sudden death in 100% of mice at 20 and 40 mg/Kg.
Mice were treated by a single i.v. administration of different amounts (40, 20, 10, 5 mg/Kg) of SET-M33L, SET-M33L-PEG or colistin sulfate (Sigma-Aldrich, C4461). Signs of toxicity were checked four times a day by visual inspection. A toxicity score was assigned for the following signs: wiry coat and poor motility = mild signs; very wiry coat, abundant lachrymation and poor motility even under stimulation = manifest signs. Animals were monitored for 4 days after inoculation of the peptide. Mice were weighed every day from arrival to the last day of the experiment. Moribund animals were killed humanely to avoid unnecessary distress.

## CC[C@H](C)[C@H](NC(=O)[C@H](CCCCN)NC(=O)[C@@H](N)CCCCN)C(=O)N[C@@H](CCCNC(=N)N)C(=O)N[C@H](C(=O)N[C@@H](CCCNC(=N)N)C(=O)N[C@@H](CC(C)C)C(=O)N[C@@H](CO)C(=O)N[C@@H](C)C(=O)NCCCC[C@H](NC(=O)[C@H](C)NC(=O)[C@H](CO)NC(=O)[C@H](CC(C)C)NC(=O)[C@H](CCCNC(=N)N)NC(=O)[C@@H](NC(=O)[C@H](CCCNC(=N)N)NC(=O)[C@@H](NC(=O)[C@H](CCCCN)NC(=O)[C@@H](N)CCCCN)[C@@H](C)CC)C(C)C)C(=O)NCCCC[C@H](NC(=O)[C@H](CCCCNC(=O)[C@H](C)NC(=O)[C@H](CO)NC(=O)[C@H](CC(C)C)NC(=O)[C@H](CCCNC(=N)N)NC(=O)[C@@H](NC(=O)[C@H](CCCNC(=N)N)NC(=O)[C@@H](NC(=O)[C@H](CCCCN)NC(=O)[C@@H](N)CCCCN)[C@@H](C)CC)C(C)C)NC(=O)[C@H](C)NC(=O)[C@H](CO)NC(=O)[C@H](CC(C)C)NC(=O)[C@H](CCCNC(=N)N)NC(=O)[C@@H](NC(=O)[C@H](CCCNC(=N)N)NC(=O)[C@@H](NC(=O)[C@H](CCCCN)NC(=O)[C@@H](N)CCCCN)[C@@H](C)CC)C(C)C)C(=O)NCCOCCOCCOCCOCCC(N)=O)C(C)C [SET-M33L-PEG] (I: H-KKIRVRLSAKK[PEG4]-NH2 / II: H-KKIRVRLSAK / III: H-KKIRVRLSA / IV: H-KKIRVRLSA; amide I:10-IV:C, I:11-II:C, II:10-III:C; N-terminus assumed)
P. aeruginosa PAO1 [1]
  survival: 80%
P. aeruginosa PAO1 [2]
  survival: 60%
BALB/c mice; single i.v. dose 40 mg/Kg, after 96 hours
  mortality: 90–100%
BALB/c mice; single i.v. dose up to 20 mg/kg, monitored 4 days, 10 BALB/c mice/group
  lethality and signs of toxicity: not lethal and no signs of toxicity were observed
